{"source": "ChEMBL document CHEMBL5303573", "about": "“Mapping human microbiome drug metabolism by gut bacteria and their genes” (Nature, 2019)"}
{"details": "bacteroides thetaiotaomicron, 12 h, 2 µM", "description": "The drug is tested on Bacteroides thetaiotaomicron strain: 3731 for biotransformation. The drug concentrations were measured before and after a 12-h incubation by liquid-chromatography-coupled mass spectrometry (LC–MS)"}
{"smiles": "CC(C)(C)NCC(O)c1cc(Cl)c(N)c(Cl)c1", "note": "(centres undefined) [CLENBUTEROL]", "Bacterial Biotransformation": "Compound NOT metabolized"}
{"assay": "The drug is tested on Collinsella aerofaciens strain: ATCC25986 for biotransformation. The drug concentrations were measured before and after a 12-h incubation by liquid-chromatography-coupled mass spectrometry (LC–MS)", "details": "2 µM"}
{"smiles": "CCCC(C)(COC(N)=O)COC(=O)NC(C)C", "note": "(centres undefined) [CARISOPRODOL]", "Bacterial Biotransformation": "Compound metabolized"}
{"smiles": "CC(C)(C)NCC(O)c1cc(Cl)c(N)c(Cl)c1", "note": "(centres undefined) [CLENBUTEROL]", "Bacterial Biotransformation": "Compound NOT metabolized"}
{"assay": "The drug is tested on Coprococcus comes strain: ATCC27758 for biotransformation. The drug concentrations were measured before and after a 12-h incubation by liquid-chromatography-coupled mass spectrometry (LC–MS)", "format": "ADME", "set-up": "dose 2 uM, timepoint 0 vs 12 hours", "details": "2 µM"}
{"smiles": "CCCC(C)(COC(N)=O)COC(=O)NC(C)C", "note": "(centres undefined) [CARISOPRODOL]", "Bacterial Biotransformation": "Compound NOT metabolized"}
{"smiles": "CC(C)(C)NCC(O)c1cc(Cl)c(N)c(Cl)c1", "note": "(centres undefined) [CLENBUTEROL]", "Bacterial Biotransformation": "Compound NOT metabolized"}
{"assay": "The drug is tested on Bifidobacterium longum subsp. Infantis strain: CCUG52486 for biotransformation. The drug concentrations were measured before and after a 12-h incubation by liquid-chromatography-coupled mass spectrometry (LC–MS)", "details": "2 µM"}
{"smiles": "CCCC(C)(COC(N)=O)COC(=O)NC(C)C", "note": "(centres undefined) [CARISOPRODOL]", "Bacterial Biotransformation": "Compound NOT metabolized"}
{"smiles": "CC(C)(C)NCC(O)c1cc(Cl)c(N)c(Cl)c1", "note": "(centres undefined) [CLENBUTEROL]", "Bacterial Biotransformation": "Compound NOT metabolized"}
{"assay": "The drug is tested on Bacteroides xylanisolvens strain: DSM18836 for biotransformation. The drug concentrations were measured before and after a 12-h incubation by liquid-chromatography-coupled mass spectrometry (LC–MS)", "details": "2 µM"}
{"smiles": "CCCC(C)(COC(N)=O)COC(=O)NC(C)C", "note": "(centres undefined) [CARISOPRODOL]", "Bacterial Biotransformation": "Compound metabolized"}
{"smiles": "CC(C)(C)NCC(O)c1cc(Cl)c(N)c(Cl)c1", "note": "(centres undefined) [CLENBUTEROL]", "Bacterial Biotransformation": "Compound NOT metabolized"}
{"assay": "The drug is tested on Eubacterium hallii strain: DSM3353 for biotransformation. The drug concentrations were measured before and after a 12-h incubation by liquid-chromatography-coupled mass spectrometry (LC–MS)", "details": "anaerobutyricum hallii, 2 µM"}
{"smiles": "CCCC(C)(COC(N)=O)COC(=O)NC(C)C", "note": "(centres undefined) [CARISOPRODOL]", "Bacterial Biotransformation": "Compound NOT metabolized"}
{"smiles": "CC(C)(C)NCC(O)c1cc(Cl)c(N)c(Cl)c1", "note": "(centres undefined) [CLENBUTEROL]", "Bacterial Biotransformation": "Compound NOT metabolized"}
{"assay": "The drug is tested on Ruminococcus lactaris strain: ATCC29176 for biotransformation. The drug concentrations were measured before and after a 12-h incubation by liquid-chromatography-coupled mass spectrometry (LC–MS)", "details": "2 µM"}
{"smiles": "CC(C)(C)NCC(O)c1cc(Cl)c(N)c(Cl)c1", "note": "(centres undefined) [CLENBUTEROL]", "Bacterial Biotransformation": "Compound NOT metabolized"}
{"assay": "The drug is tested on Clostridium scindens strain: ATCC35704 for biotransformation. The drug concentrations were measured before and after a 12-h incubation by liquid-chromatography-coupled mass spectrometry (LC–MS)", "details": "2 µM"}
{"smiles": "CCCC(C)(COC(N)=O)COC(=O)NC(C)C", "note": "(centres undefined) [CARISOPRODOL]", "Bacterial Biotransformation": "Compound NOT metabolized"}
{"smiles": "CC(C)(C)NCC(O)c1cc(Cl)c(N)c(Cl)c1", "note": "(centres undefined) [CLENBUTEROL]", "Bacterial Biotransformation": "Compound NOT metabolized"}
{"assay": "The drug is tested on Enterobacter cancerogenus strain: ATCC35316 for biotransformation. The drug concentrations were measured before and after a 12-h incubation by liquid-chromatography-coupled mass spectrometry (LC–MS)", "details": "2 µM"}
{"smiles": "CCCC(C)(COC(N)=O)COC(=O)NC(C)C", "note": "(centres undefined) [CARISOPRODOL]", "Bacterial Biotransformation": "Compound NOT metabolized"}
{"smiles": "CC(C)(C)NCC(O)c1cc(Cl)c(N)c(Cl)c1", "note": "(centres undefined) [CLENBUTEROL]", "Bacterial Biotransformation": "Compound NOT metabolized"}
{"assay": "The drug is tested on Bacteroides fragilis strain: HMW615 for biotransformation. The drug concentrations were measured before and after a 12-h incubation by liquid-chromatography-coupled mass spectrometry (LC–MS)", "details": "2 µM"}
{"smiles": "CCCC(C)(COC(N)=O)COC(=O)NC(C)C", "note": "(centres undefined) [CARISOPRODOL]", "Bacterial Biotransformation": "Compound metabolized"}
{"assay": "The drug is tested on Bacteroides finegoldii strain: DSM17565 for biotransformation. The drug concentrations were measured before and after a 12-h incubation by liquid-chromatography-coupled mass spectrometry (LC–MS)", "details": "2 µM"}
{"smiles": "CCCC(C)(COC(N)=O)COC(=O)NC(C)C", "note": "(centres undefined) [CARISOPRODOL]", "Bacterial Biotransformation": "Compound NOT metabolized"}
{"smiles": "CC(C)(C)NCC(O)c1cc(Cl)c(N)c(Cl)c1", "note": "(centres undefined) [CLENBUTEROL]", "Bacterial Biotransformation": "Compound NOT metabolized"}
{"assay": "The drug is tested on Bacteroides caccae strain: ATCC43185 for biotransformation. The drug concentrations were measured before and after a 12-h incubation by liquid-chromatography-coupled mass spectrometry (LC–MS)", "details": "2 µM"}
{"smiles": "CCCC(C)(COC(N)=O)COC(=O)NC(C)C", "note": "(centres undefined) [CARISOPRODOL]", "Bacterial Biotransformation": "Compound NOT metabolized"}
{"smiles": "CC(C)(C)NCC(O)c1cc(Cl)c(N)c(Cl)c1", "note": "(centres undefined) [CLENBUTEROL]", "Bacterial Biotransformation": "Compound NOT metabolized"}
{"assay": "The drug is tested on Odoribacter splanchnicus strain: fecal isolate for biotransformation. The drug concentrations were measured before and after a 12-h incubation by liquid-chromatography-coupled mass spectrometry (LC–MS)", "details": "2 µM"}
{"smiles": "CC(C)(C)NCC(O)c1cc(Cl)c(N)c(Cl)c1", "note": "(centres undefined) [CLENBUTEROL]", "Bacterial Biotransformation": "Compound NOT metabolized"}
{"details": "bacteroides intestinalis, 12 h, 2 µM", "description": "The drug is tested on Bacteroides intestinalis strain: DSM17393 for biotransformation. The drug concentrations were measured before and after a 12-h incubation by liquid-chromatography-coupled mass spectrometry (LC–MS)"}
{"smiles": "CCCC(C)(COC(N)=O)COC(=O)NC(C)C", "note": "(centres undefined) [CARISOPRODOL]", "Bacterial Biotransformation": "Compound NOT metabolized"}
{"smiles": "CC(C)(C)NCC(O)c1cc(Cl)c(N)c(Cl)c1", "note": "(centres undefined) [CLENBUTEROL]", "Bacterial Biotransformation": "Compound NOT metabolized"}
{"assay": "The drug is tested on Clostridium sporogenes strain: ATCC15579 for biotransformation. The drug concentrations were measured before and after a 12-h incubation by liquid-chromatography-coupled mass spectrometry (LC–MS)", "details": "2 µM"}
{"smiles": "CC(C)(C)NCC(O)c1cc(Cl)c(N)c(Cl)c1", "note": "(centres undefined) [CLENBUTEROL]", "Bacterial Biotransformation": "Compound NOT metabolized"}
{"details": "parabacteroides distasonis, 12 h, 2 µM", "description": "The drug is tested on Parabacteroides distasonis strain: ATCC8503 for biotransformation. The drug concentrations were measured before and after a 12-h incubation by liquid-chromatography-coupled mass spectrometry (LC–MS)"}
{"smiles": "CCCC(C)(COC(N)=O)COC(=O)NC(C)C", "note": "(centres undefined) [CARISOPRODOL]", "Bacterial Biotransformation": "Compound metabolized"}
{"smiles": "CC(C)(C)NCC(O)c1cc(Cl)c(N)c(Cl)c1", "note": "(centres undefined) [CLENBUTEROL]", "Bacterial Biotransformation": "Compound NOT metabolized"}
{"details": "anaerostipes sp., 12 h, 2 µM", "description": "The drug is tested on Anaerostipes sp. strain: fecal isolate for biotransformation. The drug concentrations were measured before and after a 12-h incubation by liquid-chromatography-coupled mass spectrometry (LC–MS)"}
{"smiles": "CCCC(C)(COC(N)=O)COC(=O)NC(C)C", "note": "(centres undefined) [CARISOPRODOL]", "Bacterial Biotransformation": "Compound NOT metabolized"}
{"smiles": "CC(C)(C)NCC(O)c1cc(Cl)c(N)c(Cl)c1", "note": "(centres undefined) [CLENBUTEROL]", "Bacterial Biotransformation": "Compound NOT metabolized"}
{"assay": "The drug is tested on Bacteroides fragilis strain: ATCC43859 for biotransformation. The drug concentrations were measured before and after a 12-h incubation by liquid-chromatography-coupled mass spectrometry (LC–MS)", "details": "2 µM"}
{"smiles": "CCCC(C)(COC(N)=O)COC(=O)NC(C)C", "note": "(centres undefined) [CARISOPRODOL]", "Bacterial Biotransformation": "Compound metabolized"}
{"smiles": "CC(C)(C)NCC(O)c1cc(Cl)c(N)c(Cl)c1", "note": "(centres undefined) [CLENBUTEROL]", "Bacterial Biotransformation": "Compound NOT metabolized"}
{"assay": "The drug is tested on Providencia rettgeri strain: DSM1131 for biotransformation. The drug concentrations were measured before and after a 12-h incubation by liquid-chromatography-coupled mass spectrometry (LC–MS)", "format": "ADME", "set-up": "dose 2 uM, timepoint 0 vs 12 hours", "details": "2 µM"}
{"smiles": "CC(C)(C)NCC(O)c1cc(Cl)c(N)c(Cl)c1", "note": "(centres undefined) [CLENBUTEROL]", "Bacterial Biotransformation": "Compound NOT metabolized"}
{"details": "bacteroides fragilis, 12 h, 2 µM", "description": "The drug is tested on Bacteroides fragilis strain: 3397 (T10) for biotransformation. The drug concentrations were measured before and after a 12-h incubation by liquid-chromatography-coupled mass spectrometry (LC–MS)"}
{"smiles": "CCCC(C)(COC(N)=O)COC(=O)NC(C)C", "note": "(centres undefined) [CARISOPRODOL]", "Bacterial Biotransformation": "Compound metabolized"}
{"smiles": "CC(C)(C)NCC(O)c1cc(Cl)c(N)c(Cl)c1", "note": "(centres undefined) [CLENBUTEROL]", "Bacterial Biotransformation": "Compound NOT metabolized"}
